How the values were obtained:
[1] = test system: GBM cell line U87; assay: Cell death rate of GBM cells in the blood-brain barrier cell culture model; assay type: cell-based; settings: U87, BBB model
Procedure: The blood-brain barrier cell culture model 10 includes a first culture area 11 and a second culture area 12, with multiple perforations 13 connecting the first culture area 11 and the second culture area 12. The first culture area 11 and the second culture area 12 are filled with a hydrogel A. The GBM cell line U87 is cultured in the hydrogel A of the first culture area 11, while endothelial cells 20, pericytes 30, and astrocytes 40 are sequentially arranged in the second culture area 12. Wherein the resistance value of the blood-brain barrier cell culture model 10 is set to 214462 Ω.cm^2 to establish an impedance environment of the blood-brain barrier. In subsequent experiments, the drug carrier is given to the second culture area 12 of the blood-brain barrier cell culture model 10, and experimental analysis is performed on the GBM cell line U87 in the first culture area 11 to confirm the efficacy and therapeutic effect of the drug carrier crossing from the second culture area 12 to the first culture area 11. […]

[2] = test system: GBM cell line (U87); assay: Animal model of glioblastoma multiforme (U87 implanted into mouse brain): body weight, survival, tumor growth; assay type: in vivo, mice
Procedure: To corroborate the actual effect of the drug carrier in living organisms, in a further experiment, 10^6 cells of the GBM cell line (U87) were implanted into the brains of mice to establish an animal model of glioblastoma multiforme. Seven days after the implantation surgery, the mice were administered the chemotherapy drug and/or drug carrier via intravenous injection, and imaging was used to confirm the growth status of the chemotherapy drug and/or drug carrier and the GBM cell line in the mouse brain. […]
FIGS. 10D and 10E further analyze the fluorescence expression (intensity (10^6)) of the GBM cell line in the brain area of the experimental mice in each group, and present the tissue morphology through hematoxylin-eosin staining (H&E staining) technique in the tissue section staining images to analyze the growth status of the GBM cells. […]

SMILES: Cn1nnc2c(C(N)=O)ncn2c1=O [TMZ, Temodal]
- cell death rate (%) of the GBM cells ([1]; 1st to 3rd day overall): significant cell death rate
- cell death rate (%) of the GBM cells, third day ([1]; by the third day): tended to moderate
- survival rate of the experimental mice ([2]; U87 brain-implanted mice, intravenous injection): increased
- growth of the GBM cell line in brain (fluorescence intensity) ([2]; compared with Clt and αHLA-G EV groups): inhibited to some extent

Reference: patent US20250057973A1, “Exosomes for treating glioblastoma multiforme and manufacturing method thereof” (China Medical University, priority 2023, published 2025)
